Assay results from PMC9725750, “The clinical pharmacology of tafenoquine in the radical cure of Plasmodium vivax malaria: An individual patient data meta-analysis” (eLife, 2022).

What was measured:
[1] = Tolerability and safety: acute vomiting, severe haemolysis, haemoglobin change; format: in vivo, human; conditions: for Hb change to day 2/3 / Hb change to day 7±1: mean (sd)
Protocol: For tolerability, acute vomiting was defined as vomiting within 1 hr of tafenoquine dosing, and for safety, three definitions of severe haemolysis were assessed:
• Relative fall in haemoglobin by more than 25% to <7 g/dL • Absolute fall in haemoglobin greater than 5 g/dL • Any haemoglobin fall to <5 g/dL
Tolerability and safety events were categorised according to tafenoquine treatment and doses (no tafenoquine, <3.75 mg/kg tafenoquine, [3.75,6.25) mg/kg tafenoquine, [6.25,8.75) mg/kg tafenoquine, ≥8.75 mg/kg tafenoquine). The change in haemoglobin concentration from day 0 to the minimum on day 2 or 3, the expected day of nadir ([Commons et al., 2019]), was calculated to assess changes in haemoglobin associated with tafenoquine dose. Mixed effects models were used to explore the association between tafenoquine mg/kg dose, day 7 MetHb concentration, AUC[0,∞) , Cmax, and t1/2 adjusting for age, sex, day 0 parasite density and day 0 haemoglobin, with random effects for study and site.

[2] = test system: Plasmodium vivax; assay: Radical cure efficacy: any P. vivax recurrence within 4 months in patients, pooled DETECTIVE part 1/2 and GATHER (logistic regression and Emax models); format: in vivo, human; conditions: for mean recurrence proportion: empirical weight distribution
Description: The primary endpoint for the main efficacy analyses was any P. vivax recurrence within 4 months. We chose the binary endpoint of any recurrence rather than the time to first recurrence because tafenoquine has both asexual stage antimalarial activity ([Fukuda et al., 2017]) and hypnozoiticidal activity. […] The choice of a particular cut-off for follow-up is thus a trade-off between sensitivity and specificity. Longer follow-up will increase the sensitivity of the endpoint (include more relapses) but decrease specificity (include more reinfections).
For all predictors we fitted Bayesian mixed effects logistic regression models (random intercepts for study and study site), with adjustment for day 0 parasitaemia (log transformed). Logistic regression allows inference of the odds-ratio for recurrence for the predictive variable of interest, assuming a linear relationship between the predictive variable and log-odds for recurrence.
For the mg/kg dose (the primary predictor of interest), the dose-response relationship was then assessed under a Bayesian Emax model, where the dose-dependent logit probability of recurrence is defined as: Emax(d,x)=α+βx+δd^k/d^k+γ^k,
The Emax model was also fitted with random intercepts for study and study site.
To determine the main predictors of recurrence, we fitted a multivariable penalised Bayesian logistic regression model. This included the following variables as predictors: the tafenoquine mg/kg dose; the plasma tafenoquine AUC[0,∞); the plasma tafenoquine Cmax; the day 7 MetHb concentration (%); the terminal elimination half-life t1/2; and the baseline parasite density. The model included random intercept terms for each study and study site. […] To avoid convergence issues resulting from the co-linearity of the predictors, the prior on all non-hierarchical coefficients was set to a Normal(0,0.5). This prior effectively shrinks the regression coefficients towards zero. It can be interpreted as follows: plausible odds-ratios for recurrence for one standard deviation change for each of the fixed effect predictors lie approximately between 0.38 and 2.7).
In a priori sensitivity analyses, all recurrences up until 6 months were included as both binary and time to event outcomes. The time to first recurrence was defined as a P. vivax episode between day 7 and day 180 with right censoring at the last recorded visit. We also re-ran the same models in patients who received a 300 mg single dose of tafenoquine only (i.e. the current recommended treatment).

[3] = all tafenoquine-treated patients

COc1cc(C)c2c(Oc3cccc(C(F)(F)F)c3)c(OC)cc(NC(C)CCCN)c2n1 (stereo not drawn) [tafenoquine]
additional mean haemoglobin reduction at day 2 or 3 ([1]; 300 mg dose in a 60 kg adult): around 0.1 g/dL
additional mean reduction in Hb at day 2 or 3, relative ([1]; 300 mg dose in a 60 kg adult): < 1%
patients who vomited within 1 hour of oral administration ([1]; 15/651 patients): 2.3%
haemoglobin increase per one day increase in terminal elimination half-life ([1]; 95% CI 0.01 to 0.04): 0.02 g/dL
OR for vomiting per mg/kg increase ([1]; 95% CI 0.88–1.32): 1.08
change in haemoglobin concentration per one percent increase in day 7 MetHb ([1]; Hb on day 2 or 3, 95% CI –0.12 to –0.03): –0.08 g/dL
Absolute Hb fall >5 g/dL ([1]; TQ 3.75-<6.25mg/kg, n=378): 1 (0.3%) n (%)
Hb fall >25% to<7 g/dL ([1]; TQ 3.75-<6.25mg/kg, n=378): 0 (0%) n (%)
Hb fall to <5 g/dL ([1]; TQ 3.75-<6.25mg/kg, n=378): 0 (0%) n (%)
Absolute Hb fall >5 g/dL ([1]; TQ 6.25-<8.75mg/kg, n=56): 0 (0%) n (%)
Hb fall >25% to<7 g/dL ([1]; TQ 6.25-<8.75mg/kg, n=56): 0 (0%) n (%)
Hb fall to <5 g/dL ([1]; TQ 6.25-<8.75mg/kg, n=56): 0 (0%) n (%)
Absolute Hb fall >5 g/dL ([1]; TQ <3.75mg/kg, n=171): 0 (0%) n (%)
Hb fall >25% to<7 g/dL ([1]; TQ <3.75mg/kg, n=171): 0 (0%) n (%)
Hb fall to <5 g/dL ([1]; TQ <3.75mg/kg, n=171): 0 (0%) n (%)
Absolute Hb fall >5 g/dL ([1]; TQ > 8.75mg/kg, n=44): 0 (0%) n (%)
Hb fall >25% to<7 g/dL ([1]; TQ > 8.75mg/kg, n=44): 0 (0%) n (%)
Hb fall to <5 g/dL ([1]; TQ > 8.75mg/kg, n=44): 0 (0%) n (%)
patients with a fall in Hb to less than 5 g/dL [1, 3]: no patients
patients with greater than 5 g/dL fall in Hb [1, 3]: One patient
patients with greater than 25% fall in Hb to <7 g/dL [1, 3]: no patients
mean haemoglobin reduction at day 2 or 3 ([1]; dose increased to 450 mg): 0.15 g/dL
Hb change to day 2/3 ([1]; TQ 3.75-<6.25mg/kg, n=378): –0.7 (0.9)
Hb change to day 7±1 ([1]; TQ 3.75-<6.25mg/kg, n=378): –0.4 (1.1)
Hb change to day 2/3 ([1]; TQ 6.25-<8.75mg/kg, n=56): –0.8 (0.8)
Hb change to day 7±1 ([1]; TQ 6.25-<8.75mg/kg, n=56): –0.4 (1.0)
Hb change to day 2/3 ([1]; TQ <3.75mg/kg, n=171): –0.6 (0.9)
Hb change to day 7±1 ([1]; TQ <3.75mg/kg, n=171): –0.3 (0.9)
Hb change to day 2/3 ([1]; TQ > 8.75mg/kg, n=44): –0.6 (1.1)
Hb change to day 7±1 ([1]; TQ > 8.75mg/kg, n=44): –0.3 (1.3)
haemoglobin change at day 2 or 3 per additional mg/kg of tafenoquine ([1]; mixed effects linear regression, 95% CI –0.04 to 0.00, P=0.02): –0.02 g/dL
reduction of recurrence rates ([2]; 300 mg fixed dose vs no 8-aminoquinoline treatment): around 70%
reduction of recurrence rates ([2]; 450 mg fixed dose vs no 8-aminoquinoline treatment): around 85%
mean recurrence proportion ([2]; 450 mg fixed dose, 95% CI 3.2–11.5): 6.2%
mean estimated recurrence proportion at 4 months ([2]; Emax model, 3 mg/kg): 28.5%
mean estimated recurrence proportion at 4 months ([2]; Emax model, 4 mg/kg): 20.8%
mean estimated recurrence proportion at 4 months ([2]; Emax model, 5 mg/kg): 14.2%
proportion of the maximal obtainable hypnozoiticidal effect ([2]; Emax model, 300 mg dose in a 60 kg adult (5 mg/kg)): 70%
reduction in the risk of P. vivax recurrence ([2]; Emax model, dose 7.5 mg/kg (i.e. 450 mg)): 90%
proportion of the effect achieved with 15 mg/kg ([2]; Emax model, dose of approximately 7.5 mg/kg, 15 mg/kg taken as maximum tolerated single dose): 90%
Recurrence at 4 months ([2]; TQ <3.75 mg/kg single dose + chloroquine, n=169): 57 (33.7) total number (%)
Recurrence at 4 months ([2]; TQ [3.75,6.25) mg/kg single dose + chloroquine, n=368): 79 (21.5) total number (%)
Recurrence at 4 months ([2]; TQ [6.25,8.75) mg/kg single dose + chloroquine, n=54): 4 (7.4) total number (%)
Recurrence at 4 months ([2]; TQ ≥8.75 mg/kg single dose + chloroquine, n=43, 8.75 mg/kg): No recurrences
Recurrence at 4 months ([2]; TQ ≥8.75 mg/kg single dose + chloroquine, n=43, listed as TQ, 8.75 mg/kg): 0 (0) total number (%)
number needed to treat to prevent one additional recurrence of malaria ([2]; adult dose increased from 300 mg to 450 mg, Emax model, 95% CI 7–21): 11 patients
effect on recurrence rates at 4 months of increasing dosing recommendation from 300mg to 450mg ([2]; body weight distribution as in pre-registration trials): more than halve
OR for recurrence per mg/kg increase ([2]; data from DETECTIVE part 1 only, 95% CI 0.52–0.72): 0.62
mean recurrence proportion ([2]; fixed 300 mg dose in an adult, 95% CI 9.6–21.7): 15.3%
mean probability of recurrence at 4 months ([2]; logistic model estimate, following 5 mg/kg tafenoquine, 95% CI 0.10–0.23): 0.15
odds-ratio (OR) for recurrence within 4 months per additional mg/kg of tafenoquine ([2]; logistic regression, all data n=1073, 95% CI 0.65–0.76): 0.70
odds ratio for recurrence per absolute percentage point increase in the day 7 MetHb concentration ([2]; logit-Emax model adjusted for mg/kg dose, 95% CI 0.65 to 0.99): 0.81
OR for recurrence within 4 months per mg/kg tafenoquine ([2]; restricted to patients who received 300 mg dose, n=469, 95% CI 0.51–0.85): 0.66
odds ratio for recurrence at 4 months for each day increase in t1/2 ([2]; weight-adjusted t1/2, adjusted for mg/kg dose, 95% CI 1.06–1.25): 1.15
